Measurements reported in US7455976B2, “Method of measuring oxidized LDL/β2-glycoprotein I complex occurring in the living body” (priority 2002, dated 2008).

Assays:
β2-GPI [1] = target: T1, β2-GPI (Homo sapiens, UniProt P02749); experiment: Ligand blotting analysis on a TLC plate; format: binding; conditions: detection by Cof-22 antibody and EY2C9 antibody; FIG. 1
T1 construct: β2-GPI was purified from plasma in healthy persons; from tissue; host or cells: pooled human plasma from healthy persons
T1 sequence (P02749 20-345): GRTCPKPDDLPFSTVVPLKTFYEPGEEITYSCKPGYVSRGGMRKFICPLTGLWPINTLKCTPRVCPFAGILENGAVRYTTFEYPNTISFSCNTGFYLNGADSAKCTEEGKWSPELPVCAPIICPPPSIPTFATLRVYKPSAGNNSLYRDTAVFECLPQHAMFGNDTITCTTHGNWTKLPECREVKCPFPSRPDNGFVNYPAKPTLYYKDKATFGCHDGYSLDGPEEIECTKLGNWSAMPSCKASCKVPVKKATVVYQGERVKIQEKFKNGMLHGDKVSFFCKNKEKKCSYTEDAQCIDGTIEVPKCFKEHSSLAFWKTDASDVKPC
Procedure: FIG. 1 is a graph showing ligand blotting analysis of two ω-carbdxylmutants (oxLig-1 and 9-COOH-22KC) of oxysterol ester. The ligand developed on a TLC plate was stained with I2 vapor (A), and the ligand blotting was conducted by using anti-β2-GPI antibody (Cof-22 (B) and EY2C9 (C)).
(5) Ligand Blotting Analysis on a Thin-Layer Chromatography (TLC) Plate
For conducting TLC ligand blotting, the lipid was spotted on a Polygram silica gel G plate (manufactured by Machery-Nagel) and developed with chloroform/methanol (8/1, v/v). The ligand blotting analysis was conducted according to a method described in [reference 7]. That is, the plate was dried and blocked with PBS containing 1% bovine serum albumin (BSA), and then the plate was incubated for 1 hour together with the β2-GPI and anti-β2-GPI antibodies (Cof-22 and EY2C9). Then, the plate was incubated for 1 hour with horseradish peroxidase (HRP)-labeled anti-mouse IgG antibody or anti-human IgM antibody. Between each step, the plate was washed sufficiently with PBS. Coloration was conducted using H2O2 and 4-methoxy-1-naphthol. In a TLC plate of control, the separated ligand was stained with I2 vapor.

β2-GPI [2] = target: T1, β2-GPI; experiment: ELISA using a plate coated with the ligand, β2-GPI binding detected by anti-β2-GPI antibody; conditions: immobilized lipid; for β2-GPI-binding(OD) w/Cof-22, value in parentheses / β2-GPI-binding(OD) w/EY2C9, value in parentheses / β2-GPI-binding(OD) w/WB-CAL-1, value in parentheses: not explained (method: presence or absence of β2-GPI); for β2-GPI-binding(OD) w/Cof-22: detection with Cof-22; for β2-GPI-binding(OD) w/Cof-22 / β2-GPI-binding(OD) w/EY2C9 / β2-GPI-binding(OD) w/WB-CAL-1: upper value of the pair; for β2-GPI-binding(OD) w/EY2C9: detection with EY2C9; for β2-GPI-binding(OD) w/WB-CAL-1: detection with WB-CAL-1
Procedure: (7) ELISA for Detection of Anti-β2-GPI/Lipid IgG Antibody
CL (derived from bovine heart, manufactured by Sigma), oxLig-1 or 9-COOH-22KC (50 μg/ml ethanol, 50 μl/well) was adsorbed by evaporation onto a polystyrene plate (Immulon 1B; Dynex Technologies Inc.), and this plate was blocked with 1% BSA. In each well, the purified monoclonal autoantibody or serum sample (100-fold dilution) was incubated for 1 hour in the presence or absence of β2-GPI (25 μg/ml), and then HRP-labeled anti-mouse IgG or anti-human IgG or IgM was added to each well.
The subsequent step was carried out according to the method described in the “ELISA for detection of β2-GPI/oxLDL complex”. The optical density (OD) of each sample was corrected by the average OD of the blank wells, and its antibody titer was calculated by using the positive standard in the living body. When the antibody titer in a sample was more than 3 times as high as the standard deviation of the mean of plasma samples from 50 healthy persons, the sample was expressed as positive.

Row | Structure (SMILES) | β2-GPI binding in ligand blotting (β2-GPI [1]) | β2-GPI-binding(OD) w/Cof-22, value in parentheses (β2-GPI [2]) | β2-GPI-binding(OD) w/EY2C9, value in parentheses (β2-GPI [2]) | β2-GPI-binding(OD) w/WB-CAL-1, value in parentheses (β2-GPI [2]) | β2-GPI-binding(OD) w/Cof-22 (β2-GPI [2]) | β2-GPI-binding(OD) w/EY2C9 (β2-GPI [2]) | β2-GPI-binding(OD) w/WB-CAL-1 (β2-GPI [2])
1 | CC(C)CCC[C@@H](C)[C@H]1CC[C@H]2[C@@H]3C(=O)C=C4C[C@@H](OC(=O)CCCCCCCCC(=O)O)CC[C@]4(C)[C@H]3CC[C@]12C [oxLig-1, 7-ketocholesteryl-9-carboxynonanoate] | bound predominantly | (0.041 +/− 0.001) OD | (0.013 +/− 0.001) OD | (0.013 +/− 0.004) OD | 1.194 +/− 0.099 OD | 0.878 +/− 0.031 OD | 0.441 +/− 0.007 OD
2 | CC(C)CCC(=O)[C@@H](C)[C@H]1CC[C@H]2[C@@H]3CC=C4C[C@@H](OC(=O)CCCCCCCCC(=O)O)CC[C@]4(C)[C@H]3CC[C@]12C [9-COOH-22KC, 22-Ketocholesteryl-9-carboxynonanoate] |  | (0.067 +/− 0.013) OD | (0.046 +/− 0.008) OD | (0.031 +/− 0.011) OD | 0.217 +/− 0.016 OD | 0.130 +/− 0.024 OD | 0.063 +/− 0.004 OD
